From EP4574175A1, “PRODRUG FOR ANTI-AGING RELATED DISEASES AND USE METHOD THEREFOR” (BEIJING SUNCELL BIO-MEDICAL CO., LTD., priority 2022, dated 2024)

Assays:
[1] = test system: mouse model of oxygen-induced retinopathy; experiment: Oxygen-induced retinopathy mouse model; assay type: in vivo, C57BL6/J mice; conditions: single intravitreal injection on postnatal day 12, 50 ng and 100 ng, vs vehicle, IB4 staining at P17
Excerpt: Neonatal C57BL6/J mice were exposed to a 75% hyperoxia chamber (Shanghai Tow-Int Tech Co., Ltd., Ox-100HE) from the 7th to the 12th day after birth, together with the surrogate ICR female mice, and the mice were removed and placed in a normal air environment for feeding after 12 days. Hypoxia-induced abnormal vasoproliferative lesions persisted in the retina of the neonatal mice after they were fed under a hyperoxic condition and then transferred to a normoxic condition. This mouse lesion model mimics the retinal lesion characteristic of some human vision-related diseases, such as proliferative diabetic retinopathy.
Mice on postnatal day 12 were treated with the intravitreal administration of A13bGa1 or vehicle control in each eye of each mouse. […]
The extracted eyeballs of mice were firstly fixed with 4% paraformaldehyde for 1 hour at room temperature. The retina was carefully detached using the micro ophthalmic scissors and the micro forceps, and then placed in the pre-prepared fluorescence-labelled […] IB4 (Vector, FL-1201) staining solution, and stained overnight at 4 degrees Celsius away from light. Retinal sections were made after the completion of staining, and photographed using a confocal fluorescence microscope (Leica, TCS-SP8). Retinal microvascular stained sections were analyzed for the ischaemic areas and the abnormal neovascular areas using ImageJ (NIH, USA).

[2] = target: T1, E. coli-derived β-galactosidase (Escherichia coli, UniProt P00722); experiment: In vitro enzymatic hydrolysis reaction monitored by HPLC; assay type: biochemical; conditions: 10 µM, PBS pH 7.3, 37°C, 6 hours
T1 construct: purchased Sigma
T1 sequence (P00722 2-1024): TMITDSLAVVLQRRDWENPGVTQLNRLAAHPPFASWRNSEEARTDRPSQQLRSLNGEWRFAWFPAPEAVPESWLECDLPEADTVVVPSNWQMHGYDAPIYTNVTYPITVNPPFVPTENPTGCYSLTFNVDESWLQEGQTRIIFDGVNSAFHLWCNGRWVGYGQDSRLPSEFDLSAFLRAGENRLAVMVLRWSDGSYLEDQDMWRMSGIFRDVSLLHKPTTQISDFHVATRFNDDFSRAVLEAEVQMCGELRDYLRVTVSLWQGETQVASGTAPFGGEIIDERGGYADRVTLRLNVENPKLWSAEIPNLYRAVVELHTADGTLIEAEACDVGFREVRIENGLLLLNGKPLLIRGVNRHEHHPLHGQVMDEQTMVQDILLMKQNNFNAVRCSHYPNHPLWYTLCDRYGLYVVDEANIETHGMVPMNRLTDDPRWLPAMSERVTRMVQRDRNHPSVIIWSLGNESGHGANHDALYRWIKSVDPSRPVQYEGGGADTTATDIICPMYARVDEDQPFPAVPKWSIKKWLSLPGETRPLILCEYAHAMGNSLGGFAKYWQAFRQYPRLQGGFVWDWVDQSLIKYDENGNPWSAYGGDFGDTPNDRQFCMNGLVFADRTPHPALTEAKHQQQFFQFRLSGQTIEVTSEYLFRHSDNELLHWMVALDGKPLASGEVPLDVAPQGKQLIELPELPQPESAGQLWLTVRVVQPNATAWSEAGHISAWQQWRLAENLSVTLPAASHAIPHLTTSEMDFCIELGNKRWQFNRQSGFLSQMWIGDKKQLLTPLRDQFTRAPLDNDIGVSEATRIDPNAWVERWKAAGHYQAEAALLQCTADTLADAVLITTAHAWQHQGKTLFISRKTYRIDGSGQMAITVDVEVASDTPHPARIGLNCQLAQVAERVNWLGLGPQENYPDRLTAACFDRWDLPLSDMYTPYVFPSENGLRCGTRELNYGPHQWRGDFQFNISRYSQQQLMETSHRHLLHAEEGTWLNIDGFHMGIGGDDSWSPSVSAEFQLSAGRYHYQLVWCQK
Protocol: The in vitro enzymatic hydrolysis reaction was carried out using E. coli-derived β-galactosidase (Sigma) in PBS solution (0.01 M, pH 7.3) at a reaction concentration of 10 µM for both A13 and A13bG, and for 6 hours at 37°C after the addition of β-galactosidase (10 U/µM). The hydrolysis reaction was monitored by the high performance liquid chromatography (HPLC). The compound A13 and the prodrug A13bG without enzyme reaction were analyzed by HPLC at the same conditions as the references. The chromatographic column model: Waters Acquity BEH C4, the conditions: 0.04 ml/min, (water (0.1% acetic acid)): the acetonitrile gradient elution: 98:2 1 min, 5:95 13 min, 5:95 18 min, 2:98 20 min.

[3] = test system: mouse model of Bleomycin-induced pulmonary fibrosis; experiment: Bleomycin-induced pulmonary fibrosis mouse model; assay type: in vivo, C57 mice; conditions: A13 2 mg/kg, A13bGa1 5 mg/kg i.p.
Protocol: (§1) All drugs were mixed in 85% physiological saline, 5% DMSO (Sigma, D8418) and 10% Solutol HS 15 (Sigma, 42966), and administered to mice by intraperitoneal (i.p.) injection. To treat the bleomycin-injured young mice, A13 (2 mg/kg), A13bGa1 (5 mg/kg), or an empty vehicle control was administered three consecutive days per week for four weeks. A1331852 (abbreviated as A13) was purchased from MCE.
Bleomycin was purchased from Selleck. […]. Drug treatment was initiated four days after modelling, and the drug was administered three consecutive days per week for four consecutive weeks, after which the mice were executed for material collection.
All animals (including those found dead, dying, and euthanised) were autopsied, and the lung tissues were preserved. The lungs were separated, the fat and other tissues were removed, the surface fluid was absorbed using a filter paper, and the whole lungs were weighed (those found dead, dying, and euthanised) for calculation of the lung weight index. The right lung and bronchiole were fixed in 10% neutral buffered formalin solution, embedded in paraffin, sectioned, prepared into slices, and stained with HE for a histopathological and morphological observation of the lung. The degree of the lesions such as the inflammatory cell infiltration in the lung tissue were graded according to a 4-grade classification (slight, mild, moderate, severe) using a standard terminology for diagnosis and classification. The left lung tissue was clipped and stored temporarily below -60°C. Lung weight index(%) = lung weight/body weight × 100%. [formula]
Masson trichrome stain kit (Solarbio, G1340) was used to detect fibrosis in the lung tissue. The formalin-fixed, and paraffin-embedded lung sections were dewaxed with xylene, and then rehydrated with 100% alcohol, 95% alcohol and distilled water. The sections were then stained according to the manufacturer's instructions. Afterwards, the sections were rapidly dehydrated with 95% alcohol and 100% alcohol, cleaned with xylene and covered with the coverslips. […]

[4] = Hepatic microsomal metabolic stability
[5] = Hepatic microsomal metabolic stability; remark: listed apart in the source
platelets = experiment: In vivo platelet toxicity test; design: species or system C57 mice
Protocol: as §1
A single administration of A13 or A13bG was performed. Female 5-6 week old C57 mice were treated with a single intraperitoneal injection. A13 and A13bG were administered in three different dose groups of 2, 5, and 20 mg/kg. Approximately 50 µl of blood was collected from each mouse at different time points into the EDTA tubes (RAM Scientific) by means of inner canthal blood extraction, and analyzed using a haematology analyzer for a blood routine examination and a platelet counting. Multiple administrations of A13 or A13bG were performed. Female 5-6 week old C57 mice were treated with multiple intraperitoneal injections. A13 and A13bG were administered in three different dose groups of 2, 5 and 20 mg/kg, three consecutive days per week, followed by a 4-day withdrawal for 3 weeks. The time points of administration were in the afternoon of days 0, 1, 2, 7, 8, 9, 14, 15, and 16, and the time points of blood collection and testing were in the morning of days 1, 3, 5, 8, 10, 12, 15, 17, and 19, respectively.
For a blood routine examination, 50 µl of fresh blood was collected from each mouse and immediately mixed with EDTA. Blood samples were analyzed by Celltac Alpha MEK-6400 series haematology analyzer (Nihon Kohden, MEK-6400). Data were expressed as the number of different blood cells or platelets per µl of blood. For the serum biochemical analysis, the blood samples were collected, coagulated for 2 hours at room temperature or overnight at 4°C, and then centrifuged (1000 g, 10 minutes) to obtain serum. A 200 µl of serum was aliquoted and analyzed for alanine aminotransferase (ALT), aspartate aminotransferase (AST), uric acid (UA), and creatinine (CREA) by a chemistry analyzer (Mindray, BS-350E).

Cc1c(-c2ccc(N3CCc4cccc(C(=O)Nc5nc6ccccc6s5)c4C3)nc2C(=O)OCc2ccc(O[C@@H]3O[C@H](CO)[C@H](O)[C@H](O)[C@H]3O)c([N+](=O)[O-])c2)cnn1CC12CC3CC(CC(C3)C1)C2 [A13bGa1]
area of the abnormal neovascular area [1]: significantly reduced
area of the ischemic lesion area of the retina center [1]: significantly reduced
hydrolysis by β-gal enzyme [2]: hydrolysed under the action of β-gal enzyme to release the parent compound A13
pathological manifestations of the pulmonary fibrosis (Masson staining) [3]: improved
lung index ([3]; 3 consecutive days per week for 4 weeks): recovered to the normal level
inflammation and consolidation of the mouse lungs (pathological sections) ([3]; HE staining): significant improvement
The hepatic extraction ratio (E) ([4]; Canine): 0.70
CLint scaled at 1 µM ([4]; dog, microsomes): 21.7 mL/min/kg
microsomal CLint at 1 µM ([4]; dog, microsomes): 29.3 µL/min/mg
The hepatic extraction ratio (E) ([5]; Rat): 0.34
CLint scaled at 1 µM ([5]; rat, microsomes): 18.7 mL/min/kg
microsomal CLint at 1 µM ([5]; rat, microsomes): 15.8 µL/min/mg
toxic effects on the platelets (platelets; multiple rounds i.p., 3 consecutive days per week for 3 weeks, 2, 5 and 20 mg/kg): significantly reduced
platelet-destroying effect (platelets; single intraperitoneal administration, 20 mg/kg): strong platelet-destroying effect only at the higher dose of 20 mg/kg
toxicity to the platelets (platelets; single intraperitoneal administration, 2, 5 and 20 mg/kg): significantly less toxic to the platelets than the parent compound A13
